Tested on: hepatic glucose output
Assay: Glucose production assay in primary hepatocytes
Type: cell-based
Details: FIG. 5
Protocol: Primary hepatocytes were cultured in six-well plates (1.4 times 10^6 cells per well) in DMEM with 10% FBS or, in case of hormonal treatments, in serum-free DMEM. The medium was then replaced with 1 ml of glucose production buffer consisting of glucose-free DMEM (pH 7.4), without phenol red, supplemented with 20 mM sodium lactate and 2 mM sodium pyruvate. After a 3-h incubation, 0.5 ml of medium was collected and the glucose concentration measured with a colorimetric glucose assay kit (Sigma). The readings were then normalized to the total protein content determined from the whole-cell lysates. (Yoon J C, et al. Nature 413: 131-8, 2001.)

c1ccc2c(-c3nccc4c3[nH]c3ccccc34)c[nH]c2c1 (single isomer, unassigned) [Compound F7, 1-(1H-indol-3-yl)-9H-pyrido[3,4-b]indole]
hepatic glucose output: decreases hepatic glucose output

Source: US20120283282A1, “Photoproducts of Tryptophan, Their Synthesis and Uses Thereof” (priority 2009, published 2012)
